# Key:
# NLRP3 [1] = target: T1, NLRP3 (Homo sapiens, UniProt Q96P20); assay: Human whole blood IL1β release assay; format: cell-based; settings: LPS 1 μg/ml, nigericin 10 μM, IL-1β AlphaLisa, 10 μM top dose (Example 2: top dose of 30 μM), read-out: HWB IC50
# Method in brief: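 Healthy-donor heparinised human whole blood with 1 μg/ml LPS, compound (8-point half-log dilution, 10 μM top dose unless stated; 0.1% DMSO vehicle) for 3 h at 37 °C, then nigericin 10 μM final for 1 h. Supernatant IL-1β by AlphaLISA; IC50 from 4-parameter variable-slope fit.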
# NLRP3 [2] = target: T1, NLRP3; assay: THP-1 cells pyroptosis assay; format: cell-based; set-up: Seed THP-1 cells (25,000 cells/well) containing 1.0 μg/ml LPS; host or cells: THP-1; settings: LPS 1.0 μg/ml, nigericin 5 μM, resazurin readout, 10 μM top dose (Example 2: top dose of 30 μM)
# Method in brief: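 Pyroptosis induced by 5 μM nigericin (1 h) in LPS-primed (1 μg/ml) THP-1 cells, 25,000/well in serum-free RPMI, after 3 h compound pre-treatment (8 points, 10 μM top unless stated). Surviving cells measured with 100 μM resazurin, Ex 560/Em 590; IC50 via variable-slope 4-parameter regression.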
# T1 sequence (Q96P20 whole entry): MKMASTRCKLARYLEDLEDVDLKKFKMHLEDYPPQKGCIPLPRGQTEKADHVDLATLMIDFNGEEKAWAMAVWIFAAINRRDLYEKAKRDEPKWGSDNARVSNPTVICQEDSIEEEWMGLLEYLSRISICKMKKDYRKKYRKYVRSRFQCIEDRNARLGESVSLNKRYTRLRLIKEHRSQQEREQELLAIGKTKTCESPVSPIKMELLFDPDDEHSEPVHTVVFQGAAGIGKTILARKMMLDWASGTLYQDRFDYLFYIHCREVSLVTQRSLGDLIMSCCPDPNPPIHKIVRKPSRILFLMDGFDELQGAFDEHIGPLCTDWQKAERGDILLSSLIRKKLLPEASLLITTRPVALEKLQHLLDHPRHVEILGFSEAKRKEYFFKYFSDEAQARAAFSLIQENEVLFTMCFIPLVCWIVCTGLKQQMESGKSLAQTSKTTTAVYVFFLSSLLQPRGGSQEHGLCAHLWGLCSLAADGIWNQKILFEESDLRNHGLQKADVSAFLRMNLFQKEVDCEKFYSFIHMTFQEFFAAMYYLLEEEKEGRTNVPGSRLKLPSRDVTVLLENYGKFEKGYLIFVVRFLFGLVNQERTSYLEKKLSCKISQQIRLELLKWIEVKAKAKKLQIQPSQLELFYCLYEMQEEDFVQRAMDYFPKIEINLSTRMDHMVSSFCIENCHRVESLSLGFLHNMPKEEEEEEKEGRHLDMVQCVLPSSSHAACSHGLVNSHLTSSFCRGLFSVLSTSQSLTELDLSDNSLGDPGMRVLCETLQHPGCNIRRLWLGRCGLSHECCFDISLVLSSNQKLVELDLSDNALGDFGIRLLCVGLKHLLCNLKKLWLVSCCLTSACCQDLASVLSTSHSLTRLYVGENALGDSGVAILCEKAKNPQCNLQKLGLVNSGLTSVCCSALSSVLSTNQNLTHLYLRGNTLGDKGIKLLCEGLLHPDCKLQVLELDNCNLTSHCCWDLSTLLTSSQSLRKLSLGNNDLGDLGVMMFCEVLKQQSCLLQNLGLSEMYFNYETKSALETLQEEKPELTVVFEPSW
SMILES,IC50 (NLRP3 [1]) [µM],IC50 (NLRP3 [2]) [µM]
"Cc1cc(-c2ccc3c(c2Nc2nnc(S(=O)(=O)N4CCC(N(C)C)CC4)[nH]2)CCO3)ccn1 [Example 217, N,N-dimethyl-1-((5-((5-(2-methylpyridin-4-yl)-2,3-dihydrobenzofuran-4-yl)amino)-4H-1,2,4-triazol-3-yl)sulfonyl)piperidin-4-amine]",≤ 10,≤ 5
"COc1cc(-c2cc(F)cc(C3CC3)c2Nc2nnc(S(=O)(=O)N3CCC(N(C)C)CC3)[nH]2)ccn1 [Example 301, 1-((5-((2-cyclopropyl-4-fluoro-6-(2-methoxypyridin-4-yl)phenyl)amino)-1H-1,2,4-triazol-3-yl)sulfonyl)-N,N-dimethylpiperidin-4-amine]",≤ 5,≤ 0.5
"CNC[C@H]1CCN(S(=O)(=O)c2nnc(Nc3c4c(cc5c3CCC5)CCC4)[nH]2)C1 [Example 288, (R)—N-(1,2,3,5,6,7-hexahydro-s-indacen-4-yl)-5-((3-((methylamino)methyl)pyrrolidin-1-yl)sulfonyl)-4H-1,2,4-triazol-3-amine]",≤ 1,≤ 0.5
"CN1CCC12CCN(S(=O)(=O)c1nnc(Nc3c(-c4ccnc(OC(F)F)c4)ccc4c3CCC4)[nH]1)CC2 [Example 200, N-(5-(2-(difluoromethoxy)pyridin-4-yl)-2,3-dihydro-1H-inden-4-yl)-5-((1-methyl-1,7-diazaspiro[3.5]nonan-7-yl)sulfonyl)-4H-1,2,4-triazol-3-amine]",≤ 5,≤ 0.5
"CN1CCCC12CCN(S(=O)(=O)c1nnc(Nc3c(-c4ccnc(OC(F)F)c4)ccc4c3CCC4)[nH]1)CC2 [Example 201, N-(5-(2-(difluoromethoxy)pyridin-4-yl)-2,3-dihydro-1H-inden-4-yl)-5-((1-methyl-1,8-diazaspiro[4.5]decan-8-yl)sulfonyl)-4H-1,2,4-triazol-3-amine]",≤ 0.5,≤ 0.5
"Cc1cc2c(c(Nc3nnc(S(=O)(=O)c4ccccc4)[nH]3)c1-c1ccnc(OC3CCN(C)CC3)c1)CCC2 [Example 318, N-(6-methyl-5-(2-((1-methylpiperidin-4-yl)oxy)pyridin-4-yl)-2,3-dihydro-1H-inden-4-yl)-5-(phenylsulfonyl)-4H-1,2,4-triazol-3-amine]",≤ 5,≤ 0.5
"CN(C)Cc1cccc(S(=O)(=O)c2nnc(Nc3c4c(cc5c3CCC5)CCC4)[nH]2)c1 [Example 44, 5-((3-((dimethylamino)methyl)phenyl)sulfonyl)-N-(1,2,3,5,6,7-hexahydro-s-indacen-4-yl)-4H-1,2,4-triazol-3-amine]",≤ 5,≤ 0.5

# More lines, now with the values ahead:
IC50 (NLRP3 [1]) [µM],IC50 (NLRP3 [2]) [µM],SMILES
≤ 5,≤ 1,"COc1cc(-c2ccc3c(c2Nc2nnc(S(=O)(=O)c4ccn(C)n4)[nH]2)CCC3)ccn1 [Example 339, N-(5-(2-methoxypyridin-4-yl)-2,3-dihydro-1H-inden-4-yl)-5-((1-methyl-1H-pyrazol-3-yl)sulfonyl)-4H-1,2,4-triazol-3-amine]"
≤ 5,≤ 1,"O=S(=O)(c1nnc(Nc2c3c(cc4c2CCC4)CCC3)[nH]1)N1CCC2(CCCN2C2CC2)CC1 [Example 246, 5-((1-cyclopropyl-1,8-diazaspiro[4.5]decan-8-yl)sulfonyl)-N-(1,2,3,5,6,7-hexahydro-s-indacen-4-yl)-4H-1,2,4-triazol-3-amine]"
≤ 10,≤ 0.5,"NC(=O)c1cccc(S(=O)(=O)c2nnc(Nc3c4c(cc5c3CCC5)CCC4)[nH]2)c1 [Example 341, 3-((5-((1,2,3,5,6,7-hexahydro-s-indacen-4-yl)amino)-4H-1,2,4-triazol-3-yl)sulfonyl)benzamide]"
≤ 5,≤ 5,"CN1CC2(CC1=O)CN(S(=O)(=O)c1nnc(Nc3c4c(cc5c3CCC5)CCC4)[nH]1)C2 [Example 331, 2-((5-((1,2,3,5,6,7-hexahydro-s-indacen-4-yl)amino)-4H-1,2,4-triazol-3-yl)sulfonyl)-6-methyl-2,6-diazaspiro[3.4]octan-7-one]"

# From US20210261512A1, “NOVEL COMPOUNDS” (INFLAZOME LIMITED, priority 2018, published 2021)
